Data on 15 compounds can be found in publication PMC3728144, “Synthesis, reactions and biological activity of some new bis-heterocyclic ring compounds containing sulphur atom” (Chemistry Central Journal, 2013).

The test system of data set [1] is PC3 cells (Prostrate Cancer). As to the kind of experiment: Anticancer (cytotoxic) activity, MTT colorimetric assay. As to conditions: compounds 1-30 μM, n = 3, read-out: Anticancer activity (PC-3 cell line) IC50 ± SEM. The class given is cell-based. How it is done:
(§1) Various In vitro assays were performed to the assessment of biological activity of newly synthesized compounds. Results were presented here as means ± standard error from triplicate (n = 3) observation. IC50 values were calculated by using EZ-FIT, Enzyme kinetics software by Perrella Scientific.
Cytotoxic activity of compounds was evaluated in 96-well flat-bottomed microplates by using the standard MTT (3-[4, 5-dimethylthiazole-2-yl]-2, 5-diphenyl-tetrazolium bromide, MP) colorimetric assay. For this purpose, PC3 cells (Prostrate Cancer) were cultured in Dulbecco’s Modified Eagle Medium, supplemented with 10% of fetal bovine serum (FBS, PAA), 100 IU/mL of penicillin and 100 μ g/mL of streptomycin in 75 cm^2 flasks, and kept in 5% CO2 incubator at 37°C. Exponentially growing cells were harvested, counted with haemocytometer and diluted with a particular medium with 5% FBS. Cell culture with the concentration of 1x10^5 cells/mL was prepared and introduced (100 μL/well) into 96-well plates. After overnight incubation, medium was removed and 200 μL of fresh medium was added with different concentrations of compounds (1-30 μM). Stock solution, 20 mM of compounds were prepared in 100% DMSO and final concentration of DMSO at 30 μM is 0.15% .After 48 hrs, 200 μL MTT (0.5 mg/mL) was added to each well and incubated further for 4 hrs. Subsequently, 100 μL of DMSO was added to each well. The extent of MTT reduction to formazan within cells was calculated by measuring the absorbance at 570 nm, using a micro plate reader (Spectra Max plus, Molecular Devices, CA, USA). The cytotoxicity was recorded as concentration causing 50% growth inhibition (IC50) for PC3 cells. The percent inhibition was calculated by using the following formula:
% inhibition = 100-((mean of O.D of test compound – mean of O.D of negative control)/ (mean of O.D of positive control – mean of O.D of negative control)*100).
The results (% inhibition) were processed by using Soft- Max Pro software (Molecular Device, USA).

For another data set, the target named is T1, β-Glucuronidase (Escherichia coli, UniProt P05804).
T1 construct: purchased Sigma Aldrich G7396-25KU
As to the kind of experiment: In vitro β-glucuronidase inhibition assay. The class given is biochemical. The note with it: p-nitrophenyl-β-D-glucuronide substrate, 37°C, 405 nm; NA = not active, failed to show 50% or more inhibition at 500 μM or more; read-out: ß-Glucuronidase inhibition IC50 ± SEM. The protocol:
as §1
β-Glucuronidase inhibitory activity was determined by the spectrophotometric method by measuring the absorbance at 405 nm of p-nitrophenol formed from the substrate (p-nitrophenyl-β-D-glucuronide N1627-250 mg (Sigma Aldrich). The total reaction volume was 250 μL. The compound (5 μL) was dissolved in DMSO (100%), which becomes 2% in the ultimate assay (250 μL) and the similar conditions were used for standard (D-saccharic acid 1, 4-lactone, Sigma Aldrich). The reaction mixture contained 185 μL of 0.1 M acetate buffer, 5 μL of test compound solution, 10 μL of (1U) enzyme solution (G7396-25KU, Sigma Aldrich) was incubated at 37°C for 30 min. The plates were read on a multiplate reader (SpectraMax plus 384) at 405 nm after the addition of 50 μL of 0.4 mM p-nitrophenyl-β-D-glucuronide. All assays were performed in triplicate. IC50 Values were calculated by using EZ-Fit software (Perrella Scientific Inc., Amherst, MA, U.S.A.). These values are the mean of three independent readings.

The nature of data set [2]: DPPH radical scavenging antioxidant assay. As to conditions: DPPH 300 μM, half an hour at 37°C, 515 nm, NA = not active, failed to show 50% or more inhibition at 500 μM or more, read-out: DPPH radical scavenging assay IC50 ± SEM. How it is done: as §1
Test samples were allowed to react with stable free radical, 1, 1-diphenyl-2-picrylhydrazyl radical (DPPH, Wako Chemicals USA, Inc.)) for half an hour at 37°C. Various concentrations of test samples (prepared in DMSO) were incubated with DPPH (300 μM; prepared in ethanol). After incubation, decrease in absorption was measured at 515 nm using a microplate reader (SpectraMax plus 384). Percentage radical scavenging activity (% RSA) by samples was determined, in comparison with a DMSO- treated control group.% Radical scavenging activity was calculated by using the formula given in statistical analysis section.
In general terms: DPPH is a stable violet radical that fades when it is reduced.

Where two headings read alike, the source gives them in different places.

T1 sequence (P05804 whole entry): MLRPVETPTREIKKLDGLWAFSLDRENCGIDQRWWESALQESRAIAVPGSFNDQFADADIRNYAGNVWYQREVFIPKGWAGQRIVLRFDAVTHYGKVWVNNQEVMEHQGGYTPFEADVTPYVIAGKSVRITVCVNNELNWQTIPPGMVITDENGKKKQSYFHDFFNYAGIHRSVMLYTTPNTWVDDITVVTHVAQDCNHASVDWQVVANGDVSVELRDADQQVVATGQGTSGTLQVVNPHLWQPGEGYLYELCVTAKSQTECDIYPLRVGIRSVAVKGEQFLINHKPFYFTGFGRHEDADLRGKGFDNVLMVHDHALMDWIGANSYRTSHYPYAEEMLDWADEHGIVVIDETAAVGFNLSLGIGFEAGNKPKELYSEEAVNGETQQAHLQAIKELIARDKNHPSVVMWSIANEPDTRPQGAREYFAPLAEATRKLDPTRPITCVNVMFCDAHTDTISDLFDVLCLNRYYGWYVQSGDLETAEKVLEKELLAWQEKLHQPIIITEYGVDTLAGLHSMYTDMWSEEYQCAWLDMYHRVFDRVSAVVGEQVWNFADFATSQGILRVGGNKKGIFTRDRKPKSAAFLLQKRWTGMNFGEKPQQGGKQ

By IC50 is commonly meant the concentration needed to halve the response being measured. As for `COc1cccc2c1C(=O)c1c(O)c3c(c(O)c1C2=O)C[C@@](O)(C(=O)CO)C[C@@H]3O[C@H]1C[C@H](N)[C@H](O)[C@H](C)O1` [Doxorubicin, reference compound], the concentration for half-maximal inhibition (IC50) in data set [1] (48 hrs) was 0.91 µM; in data set [1] (Homo sapiens, PC-3, 48 h), 0.912 ± 0.12 µM.

With `O=C(O)[C@@H](O)[C@H]1OC(=O)[C@H](O)[C@H]1O` [D-Saccharic acid 1,4-lactone, reference compound], at β-Glucuronidase, the IC50 was found to be 45.8 µM.

Broadly, the melting point is the temperature of the solid-liquid transition. For the compound `COc1ccc(C=C(C#N)c2nc(-c3sc4sc(-c5csc(C(C#N)=Cc6ccc(OC)cc6)n5)c(-c5ccccc5)c4c3C)cs2)cc1` [Compound 4c, 2-(4-(5-(2-(1-Cyano-2-(4-methoxyphenyl)vinyl)thiazol-4-yl)-3-methyl-4-phenylthieno[2,3-b]thiophen-2-yl)thiazol-2-yl)-3-(4-methoxyphenyl)acrylonitrile], the melting point fell in the range of 238 to 239 °C.

`Cc1c(-c2cn3c(nc4ccccc43)[nH]2)sc2sc(-c3cn4c(nc5ccccc54)[nH]3)c(-c3ccccc3)c12` [Compound 6, 5,5'-(3-Methyl-4-phenylthieno[2,3-b]thiophene-2,5-diyl)bis(1H-imidazo[1,2a]benzimidazole)] came in with a melting point greater than 320 °C.

`Cc1c(-c2csc(C(C#N)=Cc3ccc(Cl)cc3)n2)sc2sc(-c3csc(C(C#N)=Cc4ccc(Cl)cc4)n3)c(-c3ccccc3)c12` [Compound 4b, 3-(4-Chlorophenyl)-2-(4-(5-(2-(2-(4-chlorophenyl)-1-cyanovinyl)thiazol-4-yl)-3-methyl-4-phenylthieno[2,3-b]thiophen-2-yl)thiazol-2-yl)acrylonitrile] yielded a melting point of 167 to 168 °C. The IC50 in data set [1] (Homo sapiens, PC-3, 48 h) was greater than 30 µM.

In the case of `Cc1c(-c2c[nH]c(N)n2)sc2sc(-c3c[nH]c(N)n3)c(-c3ccccc3)c12` [Compound 8c, 4,4'-(3-Methyl-4-phenylthieno[2,3-b]thiophene-2,5-diyl)bis(1H-imidazol-2-amine)], the melting point was greater than 320 °C.

`Cc1c(-c2cn3[nH]cnc3n2)sc2sc(-c3cn4[nH]cnc4n3)c(-c3ccccc3)c12` [Compound 7, 5,5'-(3-Methyl-4-phenylthieno[2,3-b]thiophene-2,5-diyl)bis(1H-imidazo[1,2-b] [1,2, 4]triazole)] had a melting point greater than 320 °C.

In turn, `Cc1c(C(=O)CNc2ccccc2)sc2sc(C(=O)CNc3ccccc3)c(-c3ccccc3)c12` [Compound 9a, 1,1'-(3-Methyl-4-phenylthieno[2,3-b]thiophene-2,5-diyl)bis(2-(phenylamino)ethanone)] came in with a melting point greater than 320 °C. The IC50 in data set [1] (Homo sapiens, PC-3, 48 h) is greater than 30 µM.

As for `Cc1c(C2=C(C#N)C=NC2)sc2sc(C3=C(C#N)C=NC3)c(-c3ccccc3)c12` [Compound 5, 3-(5-(4-Cyano-2H-pyrrol-3-yl)-3-methyl-4-phenylthieno[2,3-b]thiophen-2-yl)-2H-pyrrole-4-carbonitrile], the melting point is greater than 320 °C. For the same compound, in data set [1] (Homo sapiens, PC-3, 48 h), the IC50 is greater than 30 µM. For the same compound, the IC50 at β-Glucuronidase came to 0.13 ± 0.019 µM.

Take `Cc1c(C(=O)CNc2ccc(Cl)cc2)sc2sc(C(=O)CNc3ccc(Cl)cc3)c(-c3ccccc3)c12` [Compound 9b, 1,1'-(3-Methyl-4-phenylthieno[2,3-b]thiophene-2,5-diyl)bis(2-(4-chlorophenylamino)ethanone)]: the melting point was greater than 320 °C. Also, in data set [1] (Homo sapiens, PC-3, 48 h), the IC50 is greater than 30 µM.

`Cc1c(-c2csc(CC#N)n2)sc2sc(-c3csc(CC#N)n3)c(-c3ccccc3)c12` [Compound 3, 2,2'-(4,4'-(3-Methyl-4-phenylthieno[2,3-b]thiophene-2,5-diyl)bis(thiazole-4,2-diyl)) diacetonitrile] gave a melting point greater than 320 °C. For the same compound, the IC50 in data set [1] (Homo sapiens, PC-3, 48 h) was greater than 30 µM.

As to `Cc1c(-c2coc(N)n2)sc2sc(-c3coc(N)n3)c(-c3ccccc3)c12` [Compound 8a, 4,4'-(3-Methyl-4-phenylthieno[2,3-b]thiophene-2,5-diyl)dioxazol-2-amine], the melting point was greater than 320 °C. In addition, in data set [1] (Homo sapiens, PC-3, 48 h), the half-inhibitory concentration (IC50) was greater than 30 µM. Further, at β-Glucuronidase, the half-maximal inhibitory concentration (IC50) was determined as 1.2 ± 0.0785 µM.

Turning to `CC(=O)N[C@@H](CS)C(=O)O` [N-Acetylcysteine], the figures for the 50% inhibitory concentration (IC50) in data set [2] (listed as N-acetylcystein) and in data set [2] were 106 ± 1.1 µM and 106 µM, respectively.

The compound `Cc1c(-c2csc(N)n2)sc2sc(-c3csc(N)n3)c(-c3ccccc3)c12` [Compound 8b, 4,4'-(3-Methyl-4-phenylthieno[2,3-b]thiophene-2,5-diyl)dithiazol-2-amine] gave a melting point of 260 to 261 °C. Besides, in data set [1] (Homo sapiens, PC-3, 48 h), the concentration for half-maximal inhibition (IC50) is 24.2 ± 0.29 µM.

Take `Cc1c(-c2csc(C(C#N)=Cc3ccccc3)n2)sc2sc(-c3csc(C(C#N)=Cc4ccccc4)n3)c(-c3ccccc3)c12` [Compound 4a, 2-(4-(5-(2-(1-Cyano-2-phenylvinyl)thiazol-4-yl)-3-methyl-4-phenylthieno[2,3-b]thiophen-2-yl)thiazol-2-yl)-3-phenylacrylonitrile]: the melting point lay in the range of 220 to 221 °C. The half-maximal inhibitory concentration (IC50) in data set [1] (Homo sapiens, PC-3, 48 h) was greater than 30 µM.
